Test system: CHI2 chitinase
Assay: p-nitrophenol release at […] nm, Lineweaver-Burk
Format: biochemical, Chitinolyticbacter meiyuanensis
Conditions: 50 mM sodium phosphate pH 7.0, 37 °C; substrate range 50-250 μM; unit contradictory in the paper: mM in b32 and b39, µmol/L in abstract b1

- Km: 23 mM
SMILES: CC(=O)N[C@H]1[C@H](Oc2ccc([N+](=O)[O-])cc2)O[C@H](CO)[C@@H](O)[C@@H]1O [p-NP-GlcNAc]
